# Reference: US9138434B2, “Octahydrothienoquinoline derivative, pharmaceutical composition comprising derivative, and use of these” (KISSEI PHARMACEUTICAL CO., LTD., priority 2011, dated 2015)
# Target: T1, human dopamine D2 receptor (Homo sapiens, UniProt P14416)
# T1 construct: accorded to it of human dopamine D2 receptor (NM1-000795) registered on NCBI completely; expressed in transfected cells; membrane homogenates
# Assay: Stimulating activities on human dopamine D2 receptor, [35S]GTPγS binding to hD2R#7 cell membrane homogenates
# Type: biochemical
# Settings: not given
# Experimental: Identification Test of Stimulating Activities on Human Dopamine D2 Receptor
# 4) Preparation of Membrane Homogenates from hD2R#7 Cells
# (2) Preparation of Membrane Homogenates from hD2R#7 Cells
# The cells, which were grown to confluence in 150 mm dishes (IWAKI), were harvested with isotonic buffer (50 mM Tris (Sigma), 2 mM ethylenediamine-tetraacetic acid (Invitrogen), and 125 mM sodium chloride (Wako Pure Chemicals), pH 7.4) and centrifuged at 1880×g and 4° C. for 10 minutes, and the cell pellets were then suspended in isotonic buffer. After being subjected to one cycle of freezing and thawing, the cells were centrifuged at 1880×g and 4° C. for 10 minutes, and the cell pellets were suspended in isotonic buffer. The cells were centrifuged at 1880×g and 4° C. for 10 minutes, and the cell pellets were suspended in isotonic buffer and homogenate buffer (10 mM sodium bicarbonate (Nacalai) and 5 mM ethylenediamine-tetraacetic acid, pH 7.5). The volume ratio of isotonic-to-homogenate buffer was 2. The cells were sonicated and centrifuged at 1880×g and 4° C. for 10 minutes, and the supernatants were ultracentrifuged at 80000×g and 4° C. for 30 minutes. The final cell pellets were suspended in homogenate buffer containing protease inhibitor cocktail (Nacalai) and stored at −80° C. until use. The protein concentration was determined using BCA Protein Assay Kit (Pierce) in accordance with the manufacturer's instructions.
# 5) Determination of Stimulating Activities of Human Dopamine D2 Receptor
# The stimulating activities of human dopamine D2 receptor was determined by measuring the binding potential of [^35S]-guanosine 5′-[gamma-thio]triphosphate ([^35S]GTPγS, PerkinElmer) according to the method described by Newman-Tancredi A. et al. (Naunyn-Schmiedeberg's Arch Pharmacol, 1999, vol. 359, pp. 447-453) with a minor modification. Test compounds and dopamine hydrochloride (Fluka) as positive control were dissolved in dimethyl sulfoxide (CARLBIOCHEM), resulting in 30 mM. The both compounds were diluted with assay buffer (50 mM Tris, 100 mM sodium chloride, 5 mM magnesium chloride (Nacalai), 1 mM ethylenediamine-tetraacetic acid, 1 mM dithiothreitol (Wako Pure Chemicals), 10 μM guanosine diphosphate (Wako Pure Chemicals) and 0.5% bovine serum albumin (Sigma), pH 7.4) to a final concentration of 100 pM (only test compounds), 1 nM, 10 nM, 100 nM, 1 μM, 10 μM and 100 μM (only dopamine hydrochloride). The above membrane homogenates and [^35S]GTPγS were diluted with assay buffer to a final concentration of 0.06 mg/mL and 0.6 nM, respectively. The serial diluted compounds (50 μL), the diluted membrane homogenates (50 μL) and the diluted [^35S]GTPγS (50 μL) were mixed on multi-screen 96-well plate (Millipore) and shaken lightly at room temperature for 60 minutes. The reaction was terminated by vacuum filtration with three times washes of ice-cold wash buffer (50 mM Tris, 100 mM sodium chloride, 5 mM magnesium chloride, and 1 mM ethylenediamine-tetraacetic acid, pH 7.4). After drying the bottoms of the plate at 60° C., MicroScinti-40 (PerkinElmer) (30 μL) was added in the plate. The tops of the plate were sealed by TopSeal-A (PerkinElmer), and the radioactivity was determined in a TopCount NXT (registered mark) (PerkinElmer) after shaking lightly for 5-10 minutes. The data was analyzed by nonlinear regression and sigmoidal dose-response curve fitting using GraphPad PRISM 4.0 (GraphPad Software), and values of EC50 (concentration of the compound producing half the maximal effect of the compound) were calculated. The data was presented as mean value (n=2).
# T1 sequence (P14416 whole entry): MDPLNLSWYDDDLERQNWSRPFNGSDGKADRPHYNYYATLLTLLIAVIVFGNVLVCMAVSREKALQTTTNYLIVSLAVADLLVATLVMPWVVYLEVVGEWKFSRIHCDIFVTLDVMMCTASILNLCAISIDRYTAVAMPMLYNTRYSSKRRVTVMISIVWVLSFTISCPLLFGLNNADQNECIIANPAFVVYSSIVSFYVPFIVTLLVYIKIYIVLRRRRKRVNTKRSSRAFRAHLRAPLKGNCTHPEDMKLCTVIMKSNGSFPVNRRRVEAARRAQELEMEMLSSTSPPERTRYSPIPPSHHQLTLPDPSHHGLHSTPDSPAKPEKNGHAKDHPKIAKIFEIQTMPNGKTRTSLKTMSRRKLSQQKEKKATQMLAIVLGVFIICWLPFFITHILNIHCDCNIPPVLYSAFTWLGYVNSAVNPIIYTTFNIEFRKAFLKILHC
row,SMILES,EC50
1,CCN(C(=O)NCc1ccccn1)C(=O)[C@@H]1C[C@@H]2Cc3c(sc(N)c3C#N)C[C@H]2N(C)C1 [1-25],15 nM

# Same assay, conditions: [35S]GTPγS binding, membrane homogenates of HEK293 cells stably expressing human D2 receptor; mean, n=2; read-out: EC50
row,SMILES,EC50
1,"CN(C)CCNC(=O)N(CC(C)(C)C)C(=O)[C@@H]1C[C@@H]2Cc3c(sc(N)c3C#N)C[C@H]2N(C)C1 (relative stereo) [1-56, 1-{[(4aR*,6R*,8aR*)-2-amino-3-cyano-8-methyl-4H,4aH,5H,6H,7H,8H,8aH,9H-thieno[3,2-g]quinolin-6-yl]carbonyl}-3-[2-(dimethylamino)ethyl]-1-(2,2-di-methylpropyl)urea]",9 nM
2,"CN(C)CCNC(=O)N(CC1CC1)C(=O)[C@@H]1C[C@@H]2Cc3c(sc(N)c3C#N)C[C@H]2N(C)C1 (single isomer, unassigned) [1-36]",10 nM
3,CCCN1C[C@H](C(=O)N(CCCN(C)C)C(=O)NCC)C[C@@H]2Cc3c(sc(N)c3C#N)C[C@H]21 [1-13],7 nM
4,CCN(C(=O)NCCCOC)C(=O)[C@@H]1C[C@@H]2Cc3c(sc(N)c3C#N)C[C@H]2N(C)C1 [1-21],21 nM
5,CN(C)CCNC(=O)N(Cc1cccs1)C(=O)[C@@H]1C[C@@H]2Cc3c(sc(N)c3C#N)C[C@H]2N(C)C1 [1-37],6 nM
6,C=CCN(C(=O)NCCN(C)C)C(=O)[C@@H]1C[C@@H]2Cc3c(sc(N)c3C#N)C[C@H]2N(C)C1 [1-39],17 nM
7,CCN(C(=O)NCCc1ccccc1CCN(C)C)C(=O)[C@@H]1C[C@@H]2Cc3c(sc(N)c3C#N)C[C@H]2N(C)C1 [1-44],13 nM
8,CN(C)CCNC(=O)N(CCCC(F)(F)F)C(=O)[C@@H]1C[C@@H]2Cc3c(sc(N)c3C#N)C[C@H]2N(C)C1 [1-61],11 nM
9,CCCCN(C(=O)NCCN1CCN(C)CC1)C(=O)[C@@H]1C[C@@H]2Cc3c(sc(N)c3C#N)C[C@H]2N(C)C1 [1-66],14 nM
10,COCCN(C(=O)NCCN1CCCCC1)C(=O)[C@@H]1C[C@@H]2Cc3c(sc(N)c3C#N)C[C@H]2N(C)C1 [1-68],12 nM
11,CCN(C(=O)NCCN(C)c1ccccc1)C(=O)[C@@H]1C[C@@H]2Cc3c(sc(N)c3C#N)C[C@H]2N(C)C1 [1-86],13 nM
12,CCCCN(C(=O)NCCN(C)CCO)C(=O)[C@@H]1C[C@@H]2Cc3c(sc(N)c3C#N)C[C@H]2N(C)C1 [1-87],22 nM
13,CCCCN(C(=O)NCCN(CC)CC)C(=O)[C@H]1CN[C@@H]2Cc3sc(N)c(C#N)c3C[C@H]2C1 [1-88],24 nM
